Measurements published in the supplement of paper PMC10307832.

Experiments:
Test in all cases: relative viability (nuclei count vs DMSO), 5 days (fraction); higher = more cells survive
[1] = compound: C1CCC(CC1)N(CCNCCC2=C3C(=C(C=C2)O)NC(=O)CO3)C(=O)CCNCCC4=CC(=C(C=C4)Cl)Cl [AZ505]
How it was run: (§1)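 Lung cancer cell lines received five library-drug doses (not always all listed) spaced by √10, pinned on vehicle-anchored 1536-well plates after an overnight stay at 37 °C. Five days later, with no medium change, nuclei were Hoechst-stained, imaged at 4× and counted with MetaXpress. Viability is treated-well nuclei relative to vehicle-well nuclei, as a median across plates. Passing plates had control CV below 25% and at least one doubling.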

[2] = compound: Cn1c(=O)n(-c2ccc(C(C)(C)C#N)cc2)c2c3cc(-c4cnc5ccccc5c4)ccc3ncc21 [Dactolisib]
How it was run: as §1

[3] = compound: Cn1c(=O)n(-c2ccc(C(C)(C)C#N)cc2)c2c3cc(-c4cnc5ccccc5c4)ccc3ncc21 [Dactolisib] + CC1(C)CCC(c2ccc(Cl)cc2)=C(CN2CCN(c3ccc(C(=O)NS(=O)(=O)c4ccc(N[C@H](CCN5CCOCC5)CSc5ccccc5)c(S(=O)(=O)C(F)(F)F)c4)cc3)CC2)C1 [Navitoclax] (partner 0.5 µM)
How it was run: (§2)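 Lung cancer cell lines in 1536-well plates were dosed by pin tool the day after seeding, either with one drug alone or with a fixed anchor-drug dose plus five library-drug doses (not always all listed) in √10 steps. After 5 days, cells were fixed and their nuclei stained in one step (final 0.05% Triton X-100, 1% formaldehyde, 1 ug/ml Hoechst), then counted on 4× images. Relative viability is the nuclei count in treated wells divided by that in vehicle wells. Values are medians of duplicate plates.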

[4] = compound: C1CCC(CC1)N(CCNCCC2=C3C(=C(C=C2)O)NC(=O)CO3)C(=O)CCNCCC4=CC(=C(C=C4)Cl)Cl [AZ505] + CC(=O)Nc1cccc(-n2c(=O)n(C3CC3)c(=O)c3c(Nc4ccc(I)cc4F)n(C)c(=O)c(C)c32)c1 [Trametinib] (partner 0.02 µM)
How it was run: as §2

Cell Line	relative viability ([1]; 0.08 µM)	relative viability ([1]; 0.253 µM)	relative viability ([1]; 0.8 µM)	relative viability ([1]; 2.53 µM)	relative viability ([1]; 8 µM)	relative viability ([2]; 0.002 µM)	relative viability ([2]; 0.006325 µM)	relative viability ([2]; 0.02 µM)	relative viability ([2]; 0.06325 µM)	relative viability ([2]; 0.2 µM)	relative viability ([3]; first compound 0.002 µM)	relative viability ([3]; first compound 0.006325 µM)	relative viability ([3]; first compound 0.02 µM)	relative viability ([3]; first compound 0.06325 µM)	relative viability ([3]; first compound 0.2 µM)	relative viability ([4]; first compound 0.08 µM)	relative viability ([4]; first compound 0.253 µM)	relative viability ([4]; first compound 0.8 µM)	relative viability ([4]; first compound 2.53 µM)	relative viability ([4]; first compound 8 µM)
PC-14	0.915	0.96	0.947	0.955	1.04	1.05	1.01	0.836	0.33	0.182	1.09	1.06	1.06	0.329	0.432	0.711	0.884	0.76	0.747	0.786
NCI-H1437	0.977	1	0.983	1.01	0.991	1.01	0.991	1.03	0.914	0.741	1.2	1.07	1.07	0.967	0.837	0.504	0.472	0.473	0.662	0.568
NCI-H460	0.991	0.99	0.966	1	0.976	1.04	0.989	0.984	0.541	0.488	1.21	1.02	1.16	0.169	0.0342	0.218	0.174	0.065	0.126	0.0757
NCI-H1666	0.899	0.978	0.974	0.973	0.961	1.09	0.926	0.957	0.746	0.639	1.3	0.673	0.927	0.667	0.31	0.878	0.873	0.83	0.838	0.781
NCI-H1651	0.927	0.984	0.977	0.938	1.04	1.01	1	0.872	0.555	0.434	1.13	0.865	0.755	0.317	0.276	0.814	0.863	0.834	0.817	0.829
NCI-H1755	0.93	1.05	0.962	0.98	0.958	1.04	0.976	0.963	0.887	0.742	1.09	0.943	0.928	0.519	0.467	0.728	0.785	0.749	0.741	0.746
HARA	0.792	0.758	0.915	0.873	0.847	1.08	0.982	0.928	0.601	0.369	1.2	1.13	1.18	1.13	0.404	0.454		0.62	0.504	0.71
NCI-H596	0.888	0.784	0.972	0.955	0.957	1.09	0.91	0.886	0.558	0.409	0.894	0.852	0.701	0.416	0.171	0.721		0.593	0.648	0.674
NCI-H23	0.848		0.874	0.995	1.12	1.05	0.863	0.835	0.372	0.335	0.934	0.842	0.829	0.412	0.346	0.246	0.414	0.427	0.442	0.347
